{
  "source": "patent US6355799B1",
  "about": "“Substituted benzene compounds, process for their preparation, and herbicidal and defoliant compositions containing them” (ISK Americas Incorporated, priority 1997, dated 2002)",
  "assay_type_in_all_cases": "in vivo",
  "key": {"[1]": {"test_system": "lambsquarters (Chenopodium album, CHEAL)", "experiment": "Post-emerge test, greenhouse herbicide activity screening", "conditions": "post-emerge, 14 days after application, rating scale 0-100", "how_it_was_run": "(§1)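 Sandy loam pots; pre-emerge: sown 1 d pre-spray, surface-watered after, then bottom-watered. Post-emerge: sown 8–21 d before, 2–3 leaf stage, + 0.25% v/v NIS, bottom-watered. Acetone, 187 l/ha track spray, 15–1000 g ai/ha. 0–100 injury score, day 14.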"}, "[2]": {"test_system": "large crabgrass (Digitaria sanguinalis, DIGSA)", "experiment": "Post-emerge test, greenhouse herbicide activity screening", "conditions": "post-emerge, 14 days after application, rating scale 0-100", "how_it_was_run": "as §1"}, "[3]": {"test_system": "ivyleaf morningglory (Ipomoea hederacea, IPOHE)", "experiment": "Post-emerge test, greenhouse herbicide activity screening", "conditions": "post-emerge, 14 days after application, rating scale 0-100", "how_it_was_run": "as §1"}, "[4]": {"test_system": "redroot pigweed (Amaranthus retroflexus, AMARE)", "experiment": "Post-emerge test, greenhouse herbicide activity screening", "conditions": "post-emerge, 14 days after application, rating scale 0-100", "how_it_was_run": "as §1"}, "[5]": {"test_system": "velvetleaf (Abutilon theophrasti, ABUTH)", "experiment": "Post-emerge test, greenhouse herbicide activity screening", "conditions": "post-emerge, 14 days after application, rating scale 0-100", "how_it_was_run": "as §1"}, "[6]": {"test_system": "sicklepod (Cassia obtusifolia, CASOB)", "experiment": "Post-emerge test, greenhouse herbicide activity screening", "conditions": "post-emerge, 14 days after application, rating scale 0-100", "how_it_was_run": "as §1"}, "[7]": {"test_system": "johnsongrass (Sorghum halepense, SORHA)", "experiment": "Post-emerge test, greenhouse herbicide activity screening", "conditions": "post-emerge, 14 days after application, rating scale 0-100", "how_it_was_run": "as §1"}, "[8]": {"test_system": "barnyardgrass (Echinochloa crus-galli, ECHCG)", "experiment": "Post-emerge test, greenhouse herbicide activity screening", "conditions": "post-emerge, 14 days after application, rating scale 0-100", "how_it_was_run": "as §1"}, "[9]": {"test_system": "common ragweed (Ambrosia artemisizfolia L., AMBEL)", "experiment": "Post-emerge test, greenhouse herbicide activity screening", "conditions": "post-emerge, 14 days after application, rating scale 0-100", "how_it_was_run": "as §1"}, "[10]": {"test_system": "upland rice (Oryza sp., var. Tebonnet, RICE)", "experiment": "Post-emerge test, crop safety", "conditions": "post-emerge, 14 days after application, rating scale 0-100", "how_it_was_run": "(§2)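 Herbicidal damage is scored 0 (none) to 100 (complete plant death) two weeks after a simulated field spray. Rates span 15–1000 g ai/ha, delivered in acetone at 187 l/ha. For post-emergence treatments, plants have 2–3 leaves and the spray carries 0.25% v/v non-ionic surfactant.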"}, "[11]": {"test_system": "field corn (Zea mays L., var. Dekalb 535, CORN)", "experiment": "Post-emerge test, crop safety", "conditions": "post-emerge, 14 days after application, rating scale 0-100", "how_it_was_run": "as §2"}, "[12]": {"test_system": "lambsquarters (Chenopodium album, CHEAL)", "experiment": "Pre-emerge test, greenhouse herbicide activity screening", "conditions": "rated 14 days after application, 0 = no damage, 100 = complete death", "how_it_was_run": "as §2"}, "[13]": {"test_system": "large crabgrass (Digitaria sanguinalis, DIGSA)", "experiment": "Pre-emerge test, greenhouse herbicide activity screening", "conditions": "rated 14 days after application, 0 = no damage, 100 = complete death", "how_it_was_run": "as §2"}, "[14]": {"test_system": "ivyleaf morningglory (Ipomoea hederacea, IPOHE)", "experiment": "Pre-emerge test, greenhouse herbicide activity screening", "conditions": "rated 14 days after application, 0 = no damage, 100 = complete death", "how_it_was_run": "as §2"}, "[15]": {"test_system": "velvetleaf (Abutilon theophrasti, ABUTH)", "experiment": "Pre-emerge test, greenhouse herbicide activity screening", "conditions": "rated 14 days after application, 0 = no damage, 100 = complete death", "how_it_was_run": "as §2"}, "[16]": {"test_system": "sicklepod (Cassia obtusifolia, CASOB)", "experiment": "Pre-emerge test, greenhouse herbicide activity screening", "conditions": "rated 14 days after application, 0 = no damage, 100 = complete death", "how_it_was_run": "as §2"}, "[17]": {"test_system": "johnsongrass (Sorghum halepense, SORHA)", "experiment": "Pre-emerge test, greenhouse herbicide activity screening", "conditions": "rated 14 days after application, 0 = no damage, 100 = complete death", "how_it_was_run": "as §2"}, "[18]": {"test_system": "barnyardgrass (Echinochloa crus-galli, ECHCG)", "experiment": "Pre-emerge test, greenhouse herbicide activity screening", "conditions": "rated 14 days after application, 0 = no damage, 100 = complete death", "how_it_was_run": "as §2"}, "[19]": {"test_system": "common ragweed (Ambrosia artemisizfolia L., AMBEL)", "experiment": "Pre-emerge test, greenhouse herbicide activity screening", "conditions": "rated 14 days after application, 0 = no damage, 100 = complete death", "how_it_was_run": "as §2"}, "[20]": {"test_system": "green foxtail (Setaria viridis, SETVI)", "experiment": "Pre-emerge test, greenhouse herbicide activity screening", "conditions": "rated 14 days after application, 0 = no damage, 100 = complete death", "how_it_was_run": "as §2"}, "[21]": {"test_system": "redroot pigweed (Amaranthus retroflexus, AMARE)", "experiment": "Pre-emerge test, greenhouse herbicide activity screening", "conditions": "rated 14 days after application, 0 = no damage, 100 = complete death", "how_it_was_run": "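Plants grown in 10 cm pots of sandy loam mix received acetone-dissolved compounds through a moving flat-fan nozzle. Doses ranged from 15 to 1000 g ai/ha. Pre-emerge pots were seeded one day earlier, post-emerge pots 8–21 days earlier. Fourteen days on, each pot was graded 0–100 for damage.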"}, "[22]": {"test_system": "upland rice (Oryza sp., var. Tebonnet, RICE)", "experiment": "Pre-emerge test, crop safety", "conditions": "rated 14 days after application, 0 = no damage, 100 = complete death", "how_it_was_run": "(§3)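 Visual ratings on a 0-100 scale (0 no damage, 100 all plants dead) were taken at 14 days after treatment. Rates of 15-1000 g ai/ha in acetone, 187 l/ha, were sprayed onto soil one day after planting (pre-emerge) or onto 2-3 leaf plants with 0.25% v/v surfactant (post-emerge).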"}, "[23]": {"test_system": "field corn (Zea mays L., var. Dekalb 535, CORN)", "experiment": "Pre-emerge test, crop safety", "conditions": "rated 14 days after application, 0 = no damage, 100 = complete death", "how_it_was_run": "as §3"}},
  "data": [
    {"smiles": "COc1c(Cl)cc(F)c(-n2c(=O)cc(C(F)(F)F)n(C)c2=O)c1NC(=O)c1ccc(-c2ccccc2)cc1", "note": "[2-37]", "values": [
      {"measurement": "phytotoxicity rating CHEAL", "setting": "[1]; 63 g ai/ha", "value": 0},
      {"measurement": "phytotoxicity rating CHEAL", "setting": "[1]; 250 g ai/ha", "value": 20},
      {"measurement": "phytotoxicity rating DIGSA", "setting": "[2]; 63 g ai/ha", "value": 0},
      {"measurement": "phytotoxicity rating DIGSA", "setting": "[2]; 250 g ai/ha", "value": 0},
      {"measurement": "phytotoxicity rating IPOHE", "setting": "[3]; 63 g ai/ha", "value": 0},
      {"measurement": "phytotoxicity rating IPOHE", "setting": "[3]; 250 g ai/ha", "value": 0},
      {"measurement": "phytotoxicity rating AMARE", "setting": "[4]; 63 g ai/ha", "value": 0},
      {"measurement": "phytotoxicity rating AMARE", "setting": "[4]; 250 g ai/ha", "value": 10},
      {"measurement": "phytotoxicity rating ABUTH", "setting": "[5]; 63 g ai/ha", "value": 0},
      {"measurement": "phytotoxicity rating ABUTH", "setting": "[5]; 250 g ai/ha", "value": 30},
      {"measurement": "phytotoxicity rating CASOB", "setting": "[6]; 63 g ai/ha", "value": 0},
      {"measurement": "phytotoxicity rating CASOB", "setting": "[6]; 250 g ai/ha", "value": 0},
      {"measurement": "phytotoxicity rating SORHA", "setting": "[7]; 63 g ai/ha", "value": 0},
      {"measurement": "phytotoxicity rating SORHA", "setting": "[7]; 250 g ai/ha", "value": 0},
      {"measurement": "phytotoxicity rating ECHCG", "setting": "[8]; 63 g ai/ha", "value": 0},
      {"measurement": "phytotoxicity rating ECHCG", "setting": "[8]; 250 g ai/ha", "value": 0},
      {"measurement": "phytotoxicity rating AMBEL", "setting": "[9]; 63 g ai/ha", "value": 0},
      {"measurement": "phytotoxicity rating AMBEL", "setting": "[9]; 250 g ai/ha", "value": 0},
      {"measurement": "phytotoxicity rating RICE", "setting": "[10]; 63 g ai/ha", "value": 0},
      {"measurement": "phytotoxicity rating RICE", "setting": "[10]; 250 g ai/ha", "value": 0},
      {"measurement": "phytotoxicity rating CORN", "setting": "[11]; 63 g ai/ha", "value": 0},
      {"measurement": "phytotoxicity rating CORN", "setting": "[11]; 250 g ai/ha", "value": 0},
      {"measurement": "Pre-emerge Herbicidal Activity, phytotoxicity rating (0-100), CHEAL", "setting": "[12]; 63 g ai/ha", "value": 0},
      {"measurement": "Pre-emerge Herbicidal Activity, phytotoxicity rating (0-100), CHEAL", "setting": "[12]; 250 g ai/ha", "value": 50},
      {"measurement": "Pre-emerge Herbicidal Activity, phytotoxicity rating (0-100), DIGSA", "setting": "[13]; 63 g ai/ha", "value": 0},
      {"measurement": "Pre-emerge Herbicidal Activity, phytotoxicity rating (0-100), DIGSA", "setting": "[13]; 250 g ai/ha", "value": 0},
      {"measurement": "Pre-emerge Herbicidal Activity, phytotoxicity rating (0-100), IPOHE", "setting": "[14]; 63 g ai/ha", "value": 0},
      {"measurement": "Pre-emerge Herbicidal Activity, phytotoxicity rating (0-100), IPOHE", "setting": "[14]; 250 g ai/ha", "value": 0},
      {"measurement": "Pre-emerge Herbicidal Activity, phytotoxicity rating (0-100), ABUTH", "setting": "[15]; 63 g ai/ha", "value": 0},
      {"measurement": "Pre-emerge Herbicidal Activity, phytotoxicity rating (0-100), ABUTH", "setting": "[15]; 250 g ai/ha", "value": 30},
      {"measurement": "Pre-emerge Herbicidal Activity, phytotoxicity rating (0-100), CASOB", "setting": "[16]; 63 g ai/ha", "value": 0},
      {"measurement": "Pre-emerge Herbicidal Activity, phytotoxicity rating (0-100), CASOB", "setting": "[16]; 250 g ai/ha", "value": 0},
      {"measurement": "Pre-emerge Herbicidal Activity, phytotoxicity rating (0-100), SORHA", "setting": "[17]; 63 g ai/ha", "value": 0},
      {"measurement": "Pre-emerge Herbicidal Activity, phytotoxicity rating (0-100), SORHA", "setting": "[17]; 250 g ai/ha", "value": 0},
      {"measurement": "Pre-emerge Herbicidal Activity, phytotoxicity rating (0-100), ECHCG", "setting": "[18]; 63 g ai/ha", "value": 0},
      {"measurement": "Pre-emerge Herbicidal Activity, phytotoxicity rating (0-100), ECHCG", "setting": "[18]; 250 g ai/ha", "value": 0},
      {"measurement": "Pre-emerge Herbicidal Activity, phytotoxicity rating (0-100), AMBEL", "setting": "[19]; 63 g ai/ha", "value": 0},
      {"measurement": "Pre-emerge Herbicidal Activity, phytotoxicity rating (0-100), AMBEL", "setting": "[19]; 250 g ai/ha", "value": 0},
      {"measurement": "Pre-emerge Herbicidal Activity, phytotoxicity rating (0-100), SETVI", "setting": "[20]; 63 g ai/ha", "value": 0},
      {"measurement": "Pre-emerge Herbicidal Activity, phytotoxicity rating (0-100), SETVI", "setting": "[20]; 250 g ai/ha", "value": 0},
      {"measurement": "Pre-emerge Herbicidal Activity, phytotoxicity rating (0-100), AMARE", "setting": "[21]; 63 g ai/ha", "value": 0},
      {"measurement": "Pre-emerge Herbicidal Activity, phytotoxicity rating (0-100), AMARE", "setting": "[21]; 250 g ai/ha", "value": 30},
      {"measurement": "Pre-emerge phytotoxicity rating (0-100), crop damage, RICE", "setting": "[22]; 63 g ai/ha", "value": 0},
      {"measurement": "Pre-emerge phytotoxicity rating (0-100), crop damage, RICE", "setting": "[22]; 250 g ai/ha", "value": 0},
      {"measurement": "Pre-emerge phytotoxicity rating (0-100), crop damage, CORN", "setting": "[23]; 63 g ai/ha", "value": 0},
      {"measurement": "Pre-emerge phytotoxicity rating (0-100), crop damage, CORN", "setting": "[23]; 250 g ai/ha", "value": 0}
    ]}
  ]
}
